As usually defined, the pEC50 is −log10 of the EC50, conventionally taken in molar units.

pEC50: −log10 of the molar value.

The text below walks through data of US20210113529A1, “MEDICINE FOR PREVENTING OR TREATING OPHTHALMIC DISEASE ASSOCIATED WITH ENHANCED INTRAOCULAR NEOVASCULARIZATION AND/OR INTRAOCULAR VASCULAR PERMEABILITY” (KYOTO UNIVERSITY, priority 2018, published 2021).

For data set [1], the system named is retinal vein occlusion (RVO) model. The experiment in a line: Retinal vein occlusion (RVO) model, oral: thickness of retinal inner nuclear layer (INL). The data set is classed as in vivo, mice. The conditions noted are these: dose of at least 0.03 mg/kg or more, 12 hours before and immediately after laser irradiation, 24 hours after irradiation. The method, then:
(§1) Eight-week-old mice (Japan SLC, Inc., ddy strain) were anesthetized by intramuscularly administering 10 mL/kg of a mixed anesthetic solution diluted so as to contain ketamine (120 mg/kg) and xylazine (6 mg/kg). After that, 0.15 mL of rose bengal (20 mg/kg; WAKO) was administered into the tail vein, and a vein three head systems away from the optic nerve head of the right eye of the mice was irradiated with a laser to occlude a retinal vein. For the occlusion, the laser irradiation was performed 10 times to 15 times per vein. For the laser irradiation, an attachment of a fundus photography apparatus Micron 4 (Phoenix Research Laboratories, Inc., Pleasanton, Calif., USA) was used (wavelength: 532 nm, spot size: 50 μm, irradiation time: 5,000 ms, laser output: 50 mW). Three veins were occluded per eye, and it was confirmed with photographs of the fundus that the laser-irradiated veins had been completely occluded. […]
After 24 hours from the laser irradiation, the mice were euthanized by cervical dislocation, the eyeball was extirpated, and histological evaluation was performed by a hematoxylin-eosin staining method. In addition, the thickness of the retinal inner nuclear layer (INL) was measured at intervals of 240 μm on both sides, i.e., ear side and nose side from the center of the optic nerve head. […]

The test system is the same in data set [2]. Nature of the data set: RVO model: retinal non perfusion area. Type of data set: in vivo, mice. As for the experimental part:
as §1, with “retinal vein. Thus, a retinal non perfusion area was generated. For the” for “retinal vein. For the”
The retinal flat mount specimen was photographed under a fluorescence microscope (BX50, Olympus) using a high-sensitivity cooling CCD camera (DP30BW, Olympus) through imaging software Metamorph (Universal Imaging Corp., Downingtown, Pa., USA) on an XY motor-operated stage (Sigma Koki Co., Ltd., Tokyo, Japan). […] The ratio of the retinal non perfusion area was quantified using analysis software in Metamorph. […]

In a further data set the target is S1P5 receptor (Homo sapiens, UniProt Q9H228). To be noted: GTP[γ35S] binding assay; report PLoS One, 2014, 9(10), e110819; read-out: EC50 for S1P5 receptor agonist activity; cited from earlier work.
In a further data set the target is S1P1 receptor (Homo sapiens, UniProt P21453). To be noted: GTP[γ35S] binding assay; report PLoS One, 2014, 9(10), e110819; read-out: EC50 for S1P1 receptor agonist activity; cited from earlier work.
A short description of the next data set: Body weight in CNV model. Type of data set: in vivo, mice. To be noted: oral once daily dosing, vs vehicle group. The source says:
A case in which FA was unable to be performed owing to cloudiness caused by a flaw in the eye produced before the FA evaluation and a case in which CNV was connected at the time of the evaluation of the area of CNV were excluded from analysis, and the above-mentioned results were each calculated as a mean of 11 or 12 mice in each group. […] A case in which FA was unable to be performed owing to cloudiness caused by a flaw in the eye produced before the FA evaluation and a case in which CNV was connected at the time of the evaluation of the area of CNV were excluded from analysis, and the above-mentioned results were each calculated as a mean of 12 mice in each group.

S1P1 receptor, sequence (P21453 whole entry): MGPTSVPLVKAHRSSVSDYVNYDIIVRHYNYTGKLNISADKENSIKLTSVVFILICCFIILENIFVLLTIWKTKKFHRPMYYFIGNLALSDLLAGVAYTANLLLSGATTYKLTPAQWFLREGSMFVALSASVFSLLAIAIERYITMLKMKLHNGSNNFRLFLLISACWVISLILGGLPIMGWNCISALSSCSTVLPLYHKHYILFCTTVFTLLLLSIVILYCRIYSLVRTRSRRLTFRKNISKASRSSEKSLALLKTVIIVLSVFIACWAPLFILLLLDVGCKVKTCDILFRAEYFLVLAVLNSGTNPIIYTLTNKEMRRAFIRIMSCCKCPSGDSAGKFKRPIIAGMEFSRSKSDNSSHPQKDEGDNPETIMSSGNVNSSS
S1P5 receptor, sequence (Q9H228 whole entry): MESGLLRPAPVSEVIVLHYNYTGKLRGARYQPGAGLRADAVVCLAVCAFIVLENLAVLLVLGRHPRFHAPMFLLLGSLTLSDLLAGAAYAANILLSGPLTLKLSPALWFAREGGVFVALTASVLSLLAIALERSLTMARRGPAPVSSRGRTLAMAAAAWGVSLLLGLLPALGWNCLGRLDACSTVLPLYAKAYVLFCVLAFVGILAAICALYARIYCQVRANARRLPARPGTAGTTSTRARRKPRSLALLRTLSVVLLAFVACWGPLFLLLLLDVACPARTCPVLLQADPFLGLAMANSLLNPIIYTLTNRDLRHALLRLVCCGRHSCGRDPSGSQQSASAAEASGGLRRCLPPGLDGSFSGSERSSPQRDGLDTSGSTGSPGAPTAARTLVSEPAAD

For the compound `C[C@H](Oc1ccc(-c2nc(-c3ccc4[nH]cnc4c3)no2)cc1C(F)(F)F)C(F)(F)F.Cl` [Compound 1, 5-{5-[3-(trifluoromethyl)-4-{[(2S)-1,1,1-trifluoropropan-2-yl]oxy}phenyl]-1,2,4-oxadiazol-3-yl}-1H-benzimidazole monohydrochloride], the “thickening of the INL (retinal edema)” value in data set [1] is listed as “ameliorated the thickening of the INL”. Moreover, the “enlargement of the non perfusion area” value in data set [2] (early administration: 0.3 mg/kg orally 12 hours before and immediately after laser irradiation) is “significantly reduced the enlargement of the non perfusion area”; in data set [2] (late administration: 0.3 mg/kg orally twice at an interval of 12 hours on the 7th day after laser irradiation), “significantly reduced the enlargement of the non perfusion area”. Further, the pEC50 on S1P5 receptor is 8.12; on S1P1 receptor it was 8.13. For the same compound, the “change in body weight between the groups before sampling” value in the data set “Body weight in CNV model” is reported as “a significant change in body weight between the groups before sampling was not found”.
